Where “and” joins values, the source holds several entries; their conditions need not be identical. Equal entries are not always repeated. Entries after “also recorded” stand apart in the source; their conditions may differ. Marks after values point to notes of the source that are not given here.
What was measured:
Δ-5 desaturase enzyme = conditions: Shimizu et al., Lipids 26:512-516 (1991); cited from earlier work
[1] = test system: PGE2, IL-10, IL-6 and TNF-α; conditions: fed mice, cited from earlier work
[2] = test system: Δ-5 desaturation of ω6 fatty acids; assay: Fatty acid composition of liver membrane phospholipids from mice fed sesamol-supplemented safflower oil diet; format: in vivo, Balb/c mice; conditions: 2 weeks; for DGLA (20:3ω6): control 1.4 ± 0.1; for Docosapentaenoic acid (22:5ω6): control 2.5 ± 0.4; for Δ-5 desaturation (20:4ω6/20:3): ratio Arachidonic acid/Dihomo-γ-linolenic acid, liver phospholipids, SO + 1% sesamol diet, control 18.0 ± 1.7
Procedure: The phospholipid fatty acid composition of the livers were determined, and the data represent mean mole percents of the total fatty acids (±s.d.). The levels of significance between the groups were determined using an unpaired student's t-test (p,0.05).
[…] They were allowed free access to drinking water and the experimental diets were fed at dusk, daily, between 4-5 PM. The weights of the body, and of the liver and spleen were determined on days 4, 7 and 14.
(§1) Diets: The AIN-76A fat-free powder along with 0.05% t-butyl hydroxy toluene, an antioxidant, was mixed with 5 wt % (10% Kcal) of safflower oil (Oilseeds International Ltd., Fresno, Calif.), partitioned into daily rations packaged in separate whirl-pack bags, flushed with N2, and stored at 4° C. Where indicated, these diets were supplemented with 1 wt % sesamol (Aldrich Chemical Company Inc. Milwaukee, Wis.).
Fatty acid analysis: Liver tissues were homogenized and extracted with a mixture of chloroform:methanol(2:1 v/v) containing 0.01% t-butylated hydroxytoluene as an antioxidant. The solvent fraction was isolated and evaporated to dryness under N2 and reconstituted in chloroform. The total phospholipids were separated by thin-layer chromatography on silica gel-H plates (Analtech Inc., Newark, Del.), and the fatty acid methyl esters were derived (Palombo et al., Lipids 29: 643-649 (1994)) and analyzed on a fused silica capillary column (100 m, 0.25 mm ID, 0.20 μm thickness; SP™-2560, Supelco Inc., Bellefonte, Pa.) using a gas chromatograph (5890 Series II) equipped with a mass selective detector (5971, Hewlett-Packard). The results were expressed as relative percent of identified fatty acids on a molar basis, using heptadecaenoic acid (17:0) as an internal standard.
The changes in the fatty acid composition (mean±s.d; mol. %) were determined in the liver membrane phospholipids from mice fed both the SO diets for 2 weeks (Table 1). […] Similar data were obtained in mice fed for as short as 4 days (data not shown).

[3] = test system: TNF-α, IL-6, IL-10 and IL-12; assay: Endotoxin-induced in vivo production of cytokines (plasma ELISA) in mice fed sesamol-supplemented SO diet; design: species or system Balb/c mice; conditions: SO + 1% sesamol diet, mean ± s.e.; for Tumor Necrosis Factor (TNF)-α: plasma at 1 hour following LPS, SO alone 3,042 ± 428; for Interleukin (IL)-6 / IL-10 / IL-12: plasma at 3 hours following LPS; for Interleukin (IL)-6: SO alone 143 ± 22; for IL-10: SO alone 262 ± 15; for IL-12: SO alone 6,355 ± 482
Procedure: Data represent the levels of […] (means±s.e.) in plasma samples obtained at 1 hour for TNF-α, and at 3 hours for IL-6, IL-10, and IL-12 following LPS exposure. The levels of significance in the differences between the two groups were determined using Dunnett Multiple Comparison test.
as §1
The plasma levels of TNF-α, IL-6, IL-10 and IL-12 were determined according to the manufacturer's instructions using enzyme-linked immunosorbent assay kits (Biosource International, Camarrilo, Calif.).

[4] = test system: IL-6, IL-10, IL-12, TNF-α and PGE2; assay: Synthetic sesamol diet in endotoxic mice: plasma cytokines and PGE2 after LPS challenge; format: in vivo, Balb/c mice; conditions: 5% SO + 0.25% synthetic sesamol diet, three weeks, 50 μg/mouse LPS for 90 minutes or three hours
Source text: Proinflammatory mediators play an important role during endotoxic shock. As described herein, naturally occurring sesamol inhibits Δ-5 desaturase activity, and also decreases the production of prostaglandin (PG)E2. No such scientific data are available for the synthetic, pure form of sesamol. Therefore, the effects of consuming synthetic sesamol on proinflammatory immune responses during septic shock were studied. Female Balb/c mice were fed diets supplemented with 5% safflower oil (SO) in the absence or presence of 0.25% synthetic sesamol for three weeks. After a challenge with 50 μg/mouse LPS for 90 minutes or three hours, the plasma levels (pg/ml) of interleukin (IL)-6, IL-10, IL-12, tumor necrosis factor (TNF)-α and PGE2 were determined.

[5] = Weights of body, liver and spleen of mice fed sesamol-supplemented diets; format: in vivo, Balb/c mice
Procedure: Animals: Six 8-week old, inbred, female Balb/c mice (Taconic Farms) were housed in our animal facility with a 12 hour day and 12 hour night cycle. They were allowed free access to drinking water and the experimental diets were fed at dusk, daily, between 4-5 PM. The weights of the body, and of the liver and spleen were determined on days 4, 7 and 14.

[6] = liver membrane phospholipids, 5 wt % SO + 1% sesamol diet, mean ± s.d., n=8
[7] = liver membrane phospholipids, 5 wt % SO + 1% sesamol diet, mean ± s.d., n=8, listed as SO + SESAMOL
[8] = mice fed sesamol-supplemented diets vs SO diets

Compound: c1cc2c(cc1[C@H]1OC[C@H]3[C@@H]1CO[C@@H]3c1ccc3c(c1)OCO3)OCO2 [sesamin]
- inhibition of the activity of Δ-5 desaturase enzyme in vitro (Δ-5 desaturase enzyme): inhibit
- LPS-induced production of IL-6 ([1]; Chavali et al. 1997): lower
- LPS-induced production of IL-10 ([1]; Chavali et al. 1997): lower
- LPS-induced production of PGE2 ([1]; Chavali et al. 1997): lower
- LPS-induced production of TNF-α ([1]; Chavali et al.): elevated; also recorded: higher

Compound: Oc1cc2c(cc1[C@H]1OC[C@H]3[C@@H]1CO[C@@H]3c1ccc3c(c1)OCO3)OCO2 [sesaminol]
- inhibition of the activity of Δ-5 desaturase enzyme in vitro (Δ-5 desaturase enzyme): inhibit

Compound: Oc1ccc2c(c1)OCO2 [sesamol, 3,4-methylenedioxyphenol]
- Arachidonic acid (20:4ω6) [2, 6]: unchanged
- Docosahexaenoic acid (22:6ω3) [2, 6]: 9.5 ± 0.4 mole percents
- Oleic acid (18:1ω9) [2, 6]: 8.2 ± 1.1 mole percents
- Palmitic acid (16:0) [2, 6]: 19.5 ± 1.4 mole percents
- Stearic acid (18:0) [2, 6]: 19.2 ± 1.7 mole percents
- Vaccenic acid (18:1ω7) [2, 6]: 2.6 ± 0.4 mole percents
- DGLA (20:3ω6) [2, 6]: 1.6±0.1 mole percents and 1.6±1 mole percents
- DGLA (20:3ω6) [2, 7]: 1.6 ± 0.1^a mole percents
- Docosapentaenoic acid (22:5ω6) [2, 6]: 1.4±0.1 mole percents
- Docosapentaenoic acid (22:5ω6) [2, 7]: 1.4 ± 0.1^a mole percents
- Arachidonic acid (20:4ω6) [2, 7]: 24.9 ± 0.9 mole percents
- Δ-5 desaturation (20:4ω6/20:3) [2]: 15.6±1.5
- Δ-5 desaturation (20:4ω6/20:3) ([2]; listed as SO + SESAMOL): 15.6 ± 1.5^a
- Tumor Necrosis Factor (TNF)-α [3]: not elevated; also recorded: unaffected; also recorded: did not differ markedly; also recorded: did not differ significantly
- Tumor Necrosis Factor (TNF)-α ([3]; listed as SO + SESAMOL): 2,931 ± 461 pg/ml
- Interleukin (IL)-6 [3]: 63 ± 11 ng/mL
- Interleukin (IL)-6 ([3]; listed as SO + SESAMOL): 63 ± 11 ng/mL
- IL-10 [3]: unaffected; also recorded: did not differ markedly; also recorded: did not differ significantly
- IL-10 ([3]; listed as SO + SESAMOL): 236 ± 20 pg/mL
- IL-12 [3]: did not differ markedly
- IL-12 ([3]; listed as SO + SESAMOL): 6,620 ± 646 pg/ml
- IL-10 ([4]; SO alone 314 ± 37): significantly higher
- IL-10 ([4]; SO alone 314 ± 37, listed as SO + Sesamol): 490 ± 35 pg/mL
- IL-6 ([4]; SO alone 418 ± 51): did not differ
- IL-6 ([4]; SO alone 418 ± 51, listed as SO + Sesamol): 360 ± 32 pg/mL
- PGE2 ([4]; SO alone 595 ± 68): markedly lower
- PGE2 ([4]; SO alone 595 ± 68, listed as SO + Sesamol): 265 ± 39 pg/mL
- TFN-α ([4]; SO alone 9,497 ± 1425): markedly lower
- TFN-α ([4]; SO alone 9,497 ± 1425, listed as SO + Sesamol): 4,503 pg/ml
- IL-12 ([4]; SO alone 11,165 ± 549): markedly lower
- IL-12 ([4]; SO alone 11,165 ± 549, listed as SO + Sesamol): 8,969 pg/ml
- weights of body [5, 8]: not significantly different
- weights of livers [5, 8]: unaffected; also recorded: not significantly different
- weights of the spleen [5, 8]: not significantly different
- percent gain in body weights ([5]; sesamol-supplemented vs SO diet group): almost identical
- inhibition of the activity of Δ-5 desaturase enzyme in vitro (Δ-5 desaturase enzyme): does not inhibit

Compound: c1cc2c(cc1O[C@H]1OC[C@H]3[C@@H]1CO[C@@H]3c1ccc3c(c1)OCO3)OCO2 [sesamolin]
- inhibition of the activity of Δ-5 desaturase enzyme in vitro (Δ-5 desaturase enzyme): inhibit

From patent publication US20010031275A1, “Sesamol inhibitor of delta-5-desaturase activity and uses therefor” (priority 1998, published 2001)
